Data as given in US11780832B2, “Lactivicin compounds, their preparation and use as antibacterial agents” (priority 2021, dated 2023).

Assays:
Assay type in all cases: cell-based
[1] = system: Klebsiella pneumoniae CMY-DHA; experiment: MIC against CMY-DHA producing strains, compound alone; details: row r32
Procedure: (§1) Gram-negative and Gram-positive bacterial strains used during the in vitro minimum inhibitory concentration (MIC) determination were obtained either from the American Type Culture Collection (ATCC) or from clinical specimens. All strains were characterized genotypically and the respective antibiotic resistance markers for each strain were identified.
(§2) Isolates were sub-cultured onto appropriate media and stocked in skim milk at −80° C. Following two subcultures from frozen stock, in vitro antimicrobial susceptibility testing was performed using the Clinical and Laboratory Standards Institute (CLSI) broth microdilution method. Briefly, fresh cultures were suspended in culture media to give a final stock inoculum size of 5×10^7 colony forming units per milliliter of broth (CFU/mL). Test compounds were prepared at a stock solution concentration equal to 128 μg/mL, then diluted to give a final an initial working concentration of 32 μg/mL. 100 μL of the stock solutions were added to the first wells in a 96-well plate and were then diluted using a 2-fold dilution method to give a range of 32-0.025 μg/mL. 100 μL of the bacterial suspensions were then added to the 96-well plates to give a final working inoculum size of 5×10^5 CFU/mL. The final compound concentration range was 16-0.0125 μg/mL. […] MICs for comparator agents were determined using custom-designed, in-house prepared 96-well broth microdilution panels.

[2] = system: Proteus mirabilis CMY-DHA; experiment: as above; details: row r36
Procedure: as §1, §2

Escherichia coli CMY-DHA [3] = experiment: as above
Procedure: as §1, §2

[4] = system: Klebsiella pneumoniae OXA-48, SHV-1; experiment: MIC, CLSI broth microdilution
Summary of the method: (§3)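 CLSI broth microdilution; 2-fold compound series, final 16-0.0125 μg/mL; final inoculum 5×10^5 CFU/mL. Strains genotyped for resistance markers, passaged twice from frozen stock before testing.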

[5] = system: Escherichia coli CTX-M-15; experiment: MIC, CLSI broth microdilution; details: CTXM15
Summary of the method: (§4)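 Genotyped isolates from ATCC or clinical sources were subcultured twice from −80 °C skim-milk stocks, then tested by CLSI broth microdilution. Compounds were serially diluted 2-fold to a final 16-0.0125 μg/mL, with a final inoculum of 5×10^5 CFU/mL.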

[6] = system: Klebsiella pneumoniae OXA-163, OXA-1_OXA-30, SHV-1, TEM-1; experiment: MIC, CLSI broth microdilution
Summary of the method: as §3

[7] = system: Klebsiella pneumoniae KPC-2; experiment: MIC, CLSI broth microdilution; details: KPC2
Summary of the method: as §4

[8] = system: Serratia marcescens SME-2; experiment: MIC, CLSI broth microdilution; details: SME2
Summary of the method: as §4

[9] = system: Citrobacter freundii species complex OXA-181; experiment: MIC, CLSI broth microdilution; details: Citrobacter freundii species complex, OXA-181; read-out: MIC
Summary of the method: as §4

[10] = system: Pseudomonas aeruginosa AmpC overexpressed; experiment: MIC, CLSI broth microdilution
Summary of the method: as §3

[11] = system: Escherichia coli ATCC 25922; experiment: MIC, CLSI broth microdilution; details: ATCC25922
Summary of the method: as §4

[12] = system: Klebsiella pneumoniae SHV-12; experiment: MIC, CLSI broth microdilution; details: SHV12, SHV-12, read-out: MIC
Summary of the method: as §4

[13] = system: Klebsiella oxytoca KPC-2, TEM-1; experiment: MIC, CLSI broth microdilution; details: KPC-2, TEM-1, read-out: MIC
Summary of the method: as §4

[14] = system: Acinetobacter baumannii ATCC 19606; experiment: MIC, CLSI broth microdilution; details: ATCC19606
Summary of the method: as §4

[15] = system: Enterobacter cloacae species complex NDM-1; experiment: MIC, CLSI broth microdilution
Summary of the method: as §4

[16] = system: Serratia marcescens AmpC overexpressed; experiment: MIC, CLSI broth microdilution
Summary of the method: as §3

[17] = system: Klebsiella pneumoniae KPC-3; experiment: MIC, CLSI broth microdilution; details: KPC3, KPC-3, read-out: MIC
Summary of the method: as §4

[18] = system: Klebsiella aerogenes VIM-1, SHV-12; experiment: MIC, CLSI broth microdilution
Summary of the method: as §4

Escherichia coli SHV-12 = experiment: MIC, CLSI broth microdilution; details: SHV12
Summary of the method: as §4

[19] = system: Pseudomonas aeruginosa OprD negative; experiment: MIC, CLSI broth microdilution
Summary of the method: as §3

Escherichia coli CMY-2 = experiment: MIC, CLSI broth microdilution; details: CMY2
Summary of the method: as §4

[20] = system: Pseudomonas aeruginosa ATCC 27853; experiment: MIC, CLSI broth microdilution; details: ATCC27853
Summary of the method: as §4

[21] = system: Escherichia coli Elevated AmpC; experiment: Synergistic activity: MIC in the presence of Avibactam
Procedure: as §2
(§5) The same method used to test the activity of the claimed compounds was used to determine their synergistic activity when combined with a β-lactamase inhibitor except that either a fixed concentration or fixed ratio of a β-lactamase inhibitor was added to the 96-well plates prior to adding the bacteria cultures. Synergistic activity was defined as the reduction of MIC of a given compound when tested using the β-lactamase inhibitor versus testing the compound in the absence of a β-lactamase inhibitor.

[22] = system: Klebsiella pneumoniae CMY-DHA; experiment: as above; details: row r32, in the presence of Avibactam @ 4 μg/mL
Procedure: as §2, §5

Escherichia coli CMY-DHA [23] = experiment: as above
Procedure: as §2, §5

Measured: MIC

Nc1nc(/C(=N/OC2(C(=O)O)CC2)C(=O)N[C@H]2CON(C3(C(=O)O)C[C@H](N4Cc5cc(O)c(O)cc5C4=O)C(=O)O3)C2=O)cs1 (stereo partly drawn) [Cmpd 28, (4S)-2-[(4S)-4-{[(2Z)-2-(2-amino-1,3-thiazol-4-yl)-2-{[(1-carboxycyclopropyl)oxy]imino}acetyl]amino}-3-oxo-1,2-oxazolidin-2-yl]-4-(5,6-dihydroxy-1-oxo-1,3-dihydro-2H-isoindol-2-yl)-5-oxooxolane-2-carboxylic acid]
8 µg/mL: Escherichia coli CMY-DHA [3]; strain of row r31 | Escherichia coli CMY-2
0.03 µg/mL: [21]; strain of row r12, in the presence of Avibactam @ 4 μg/mL | Escherichia coli CMY-DHA [23]; strain of row r35, in the presence of Avibactam @ 4 μg/mL
0.0149 µg/mL: [4] | [7] | [13]
2 µg/mL: [1] | [2] | Escherichia coli CMY-DHA [3]; strain of row r35 | [10] | [15]
0.06 µg/mL: [12] | [21]; strain of row r11, in the presence of Avibactam @ 4 μg/mL | [21]; strain of row r14, in the presence of Avibactam @ 4 μg/mL | Escherichia coli CMY-DHA [23]; strain of row r28, in the presence of Avibactam @ 4 μg/mL
<=0.008 μg/mL: [21]; strain of row r13, in the presence of Avibactam @ 4 μg/mL | Escherichia coli CMY-DHA [23]; strain of row r27, in the presence of Avibactam @ 4 μg/mL | Escherichia coli CMY-DHA [23]; strain of row r30, in the presence of Avibactam @ 4 μg/mL
0.5 µg/mL: Escherichia coli CMY-DHA [3]; strain of row r28 | Escherichia coli SHV-12 | [19]
0.015 µg/mL: [21]; strain of row r10, in the presence of Avibactam @ 4 μg/mL | Escherichia coli CMY-DHA [23]; strain of row r34, in the presence of Avibactam @ 4 μg/mL
4 µg/mL: Escherichia coli CMY-DHA [3]; strain of row r26 | Escherichia coli CMY-DHA [3]; strain of row r29
1 µg/mL: Escherichia coli CMY-DHA [3]; strain of row r30 | Escherichia coli CMY-DHA [3]; strain of row r34 | [5] | [20]
0.25 µg/mL: Escherichia coli CMY-DHA [3]; strain of row r27 | [6] | [11] | [16] | [17] | [21]; strain of row r15, in the presence of Avibactam @ 4 μg/mL
0.12 µg/mL: [8] | [9] | [14] | [18] | [22] | Escherichia coli CMY-DHA [23]; strain of row r26, in the presence of Avibactam @ 4 μg/mL | Escherichia coli CMY-DHA [23]; strain of row r29, in the presence of Avibactam @ 4 μg/mL | Escherichia coli CMY-DHA [23]; strain of row r31, in the presence of Avibactam @ 4 μg/mL
